Laboratory results reported in ChEMBL document CHEMBL3779863, “Ionic liquid-promoted one-pot synthesis of thiazoleimidazo[2,1-b][1,3,4]thiadiazole hybrids and their antitubercular activity” (Medchemcomm, 2016).
Converted amounts (≈) assume the structure as drawn.

How the values were obtained:
Pseudomonas aeruginosa = assay: Antibacterial activity against Pseudomonas aeruginosa ATCC 27853 after 12 hrs by serial plate dilution method; format: functional; conditions: ATCC 27853, 12 h
Escherichia coli = assay: Antibacterial activity against Escherichia coli ATCC 25922 after 12 hrs by serial plate dilution method; format: functional; conditions: ATCC 25922, 12 h
Staphylococcus aureus = assay: Antibacterial activity against Staphylococcus aureus ATCC 25923 after 12 hrs by serial plate dilution method; format: functional; conditions: ATCC 25923, 12 h
[1] = Cytotoxicity against mouse NIH/3T3 cells assessed as cell growth inhibition at 50 ug/mL after 48 hrs by MTT assay; format: cell-based, NIH3T3; conditions: read-out: GI
[2] = test system: Mycobacterium tuberculosis; assay: Antimycobacterial activity against Mycobacterium tuberculosis H37Rv after 5 days by fluorescence analysis; format: functional; conditions: 120 h

`Cc1nn2c(/C=N/Nc3nc(-c4ccc(F)cc4)cs3)c(-c3ccc(Cl)cc3)nc2s1` gave an MIC (Pseudomonas aeruginosa) of 50 µg/mL (≈ 107 µM), an MIC (Escherichia coli) of 25 µg/mL (≈ 53.3 µM) and an MIC (Staphylococcus aureus) of 25 µg/mL (≈ 53.3 µM).

For `Cc1ccc(-c2nc3sc(C)nn3c2/C=N/Nc2nc(-c3ccc(Cl)cc3)cs2)cc1`, the MIC (Pseudomonas aeruginosa) was 50 µg/mL (≈ 108 µM), the MIC (Escherichia coli) was 50 µg/mL (≈ 108 µM) and the MIC (Staphylococcus aureus) was 50 µg/mL (≈ 108 µM).

Compound `Cc1ccc(-c2csc(N/N=C/c3c(-c4ccc(C)cc4)nc4sc(C)nn34)n2)cc1` has an MIC (Pseudomonas aeruginosa) of 25 µg/mL (≈ 56.2 µM), an MIC (Escherichia coli) of 50 µg/mL (≈ 112 µM) and an MIC (Staphylococcus aureus) of 50 µg/mL (≈ 112 µM).

Work on `COc1ccc(-c2csc(N/N=C/c3c(-c4ccc(OC)cc4)nc4sc(C(F)(F)F)nn34)n2)cc1` yielded an MIC (Pseudomonas aeruginosa) of 25 µg/mL (≈ 47.1 µM), an MIC (Escherichia coli) of 12.5 µg/mL (≈ 23.6 µM) and an MIC (Staphylococcus aureus) of 25 µg/mL (≈ 47.1 µM).

`COc1ccc(-c2csc(N/N=C/c3c(-c4ccc(C)cc4)nc4sc(C)nn34)n2)cc1` gave an MIC (Pseudomonas aeruginosa) of 25 µg/mL (≈ 54.3 µM), an MIC (Escherichia coli) of 50 µg/mL (≈ 109 µM) and an MIC (Staphylococcus aureus) of 50 µg/mL (≈ 109 µM).

`Fc1ccc(-c2csc(N/N=C/c3c(-c4ccc(Cl)cc4)nc4sc(C(F)(F)F)nn34)n2)cc1` showed an MIC (Pseudomonas aeruginosa) of 6.25 µg/mL (≈ 12 µM), an inhibition at 48 h, 50 ug/mL [1] of 15.9% and an MIC (Escherichia coli) of 6.25 µg/mL (≈ 12 µM). It also gave an MIC (Staphylococcus aureus) of 12.5 µg/mL (≈ 23.9 µM).

In the case of `Cc1ccc(-c2csc(N/N=C/c3c(-c4ccc(Cl)cc4)nc4sc(C)nn34)n2)cc1`, the MIC (Pseudomonas aeruginosa) is reported as 50 µg/mL (≈ 108 µM), the MIC (Escherichia coli) is reported as 50 µg/mL (≈ 108 µM) and the MIC (Staphylococcus aureus) is reported as 50 µg/mL (≈ 108 µM).

For `COc1ccc(-c2nc3sc(C(F)(F)F)nn3c2/C=N/Nc2nc(-c3ccc(C)cc3)cs2)cc1`, the MIC (Pseudomonas aeruginosa) was 25 µg/mL (≈ 48.6 µM), the inhibition at 48 h, 50 ug/mL [1] was 18.4% and the MIC (Escherichia coli) was 25 µg/mL (≈ 48.6 µM). It also gave an MIC (Staphylococcus aureus) of 50 µg/mL (≈ 97.2 µM).

With `COc1ccc(-c2nc3sc(C(F)(F)F)nn3c2/C=N/Nc2nc(-c3ccc(F)cc3)cs2)cc1` the MIC (Pseudomonas aeruginosa) was 25 µg/mL (≈ 48.2 µM), the inhibition at 48 h, 50 ug/mL [1] was 18.9% and the MIC (Escherichia coli) was 50 µg/mL (≈ 96.4 µM). It also gave an MIC (Staphylococcus aureus) of 50 µg/mL (≈ 96.4 µM).

For `Cc1ccc(-c2nc3sc(C)nn3c2/C=N/Nc2nc(-c3ccc(F)cc3)cs2)cc1`, the MIC (Pseudomonas aeruginosa) was 50 µg/mL (≈ 111 µM), the inhibition at 48 h, 50 ug/mL [1] was 22.3% and the MIC (Escherichia coli) was 50 µg/mL (≈ 111 µM). The MIC (Staphylococcus aureus) was 50 µg/mL (≈ 111 µM).

`COc1ccc(-c2csc(N/N=C/c3ccc4c(c3)c3ccccc3n4C)n2)cc1OC` showed an MIC [2] of 21 µM (≈ 9.29 µg/mL).

`COc1ccc(-c2nc3sc(C)nn3c2/C=N/Nc2nc(-c3ccc([N+](=O)[O-])cc3)cs2)cc1` showed an MIC (Pseudomonas aeruginosa) of 25 µg/mL (≈ 50.9 µM), an MIC (Escherichia coli) of 25 µg/mL (≈ 50.9 µM) and an MIC (Staphylococcus aureus) of 25 µg/mL (≈ 50.9 µM).

`COc1ccc(-c2nc3sc(C)nn3c2/C=N/Nc2nc(-c3ccc(C)cc3)cs2)cc1` gave an MIC (Pseudomonas aeruginosa) of 50 µg/mL (≈ 109 µM), an MIC (Escherichia coli) of 50 µg/mL (≈ 109 µM) and an MIC (Staphylococcus aureus) of 50 µg/mL (≈ 109 µM).

With `Cc1ccc(-c2nc3sc(C)nn3c2/C=N/Nc2nc(-c3ccc([N+](=O)[O-])cc3)cs2)cc1` the MIC (Pseudomonas aeruginosa) was 12.5 µg/mL (≈ 26.3 µM), the inhibition at 48 h, 50 ug/mL [1] was 23.3% and the MIC (Escherichia coli) was 6.25 µg/mL (≈ 13.1 µM). For the same compound, the MIC (Staphylococcus aureus) was 12.5 µg/mL (≈ 26.3 µM).

Work on `O=[N+]([O-])c1ccc(-c2csc(N/N=C/c3c(-c4ccc(Cl)cc4)nc4sc(C(F)(F)F)nn34)n2)cc1` yielded an MIC (Pseudomonas aeruginosa) of 25 µg/mL (≈ 45.5 µM), an MIC (Escherichia coli) of 12.5 µg/mL (≈ 22.7 µM) and an MIC (Staphylococcus aureus) of 12.5 µg/mL (≈ 22.7 µM).

With `COc1ccc(-c2csc(N/N=C/c3c(-c4ccc(OC)cc4)nc4sc(C)nn34)n2)cc1` the MIC (Pseudomonas aeruginosa) was 50 µg/mL (≈ 105 µM), the MIC (Escherichia coli) was 12.5 µg/mL (≈ 26.2 µM) and the MIC (Staphylococcus aureus) was 50 µg/mL (≈ 105 µM).

With `COc1ccc(-c2nc3sc(C)nn3c2/C=N/Nc2nc(-c3ccc(F)cc3)cs2)cc1` the MIC (Pseudomonas aeruginosa) was 50 µg/mL (≈ 108 µM), the MIC (Escherichia coli) was 50 µg/mL (≈ 108 µM) and the MIC (Staphylococcus aureus) was 50 µg/mL (≈ 108 µM).

For `COc1ccc(-c2csc(N/N=C/c3c(-c4ccc(Cl)cc4)nc4sc(C)nn34)n2)cc1`, the MIC (Pseudomonas aeruginosa) was 50 µg/mL (≈ 104 µM), the inhibition at 48 h, 50 ug/mL [1] was 20.8% and the MIC (Escherichia coli) was 25 µg/mL (≈ 52 µM). The MIC (Staphylococcus aureus) was 50 µg/mL (≈ 104 µM).

Work on `FC(F)(F)c1nn2c(/C=N/Nc3nc(-c4ccc(Cl)cc4)cs3)c(-c3ccc(Cl)cc3)nc2s1` yielded an MIC (Pseudomonas aeruginosa) of 50 µg/mL (≈ 92.7 µM), an MIC (Escherichia coli) of 12.5 µg/mL (≈ 23.2 µM) and an MIC (Staphylococcus aureus) of 12.5 µg/mL (≈ 23.2 µM).

`COc1ccc(-c2nc3sc(C(F)(F)F)nn3c2/C=N/Nc2nc(-c3ccc(Cl)cc3)cs2)cc1` gave an MIC (Pseudomonas aeruginosa) of 50 µg/mL (≈ 93.5 µM), an MIC (Escherichia coli) of 50 µg/mL (≈ 93.5 µM) and an MIC (Staphylococcus aureus) of 50 µg/mL (≈ 93.5 µM).

With `Cc1nn2c(/C=N/Nc3nc(-c4ccc(Cl)cc4)cs3)c(-c3ccc(Cl)cc3)nc2s1` the MIC (Pseudomonas aeruginosa) was 25 µg/mL (≈ 51.5 µM), the MIC (Escherichia coli) was 25 µg/mL (≈ 51.5 µM) and the MIC (Staphylococcus aureus) was 25 µg/mL (≈ 51.5 µM).

For `COc1ccc(-c2csc(N/N=C/c3c(-c4ccc(Cl)cc4)nc4sc(C(F)(F)F)nn34)n2)cc1`, the MIC (Pseudomonas aeruginosa) was 25 µg/mL (≈ 46.7 µM), the inhibition at 48 h, 50 ug/mL [1] was 14.7% and the MIC (Escherichia coli) was 12.5 µg/mL (≈ 23.4 µM). It also gave an MIC (Staphylococcus aureus) of 25 µg/mL (≈ 46.7 µM).

With `Cc1ccc(-c2csc(N/N=C/c3c(-c4ccc(Cl)cc4)nc4sc(C(F)(F)F)nn34)n2)cc1` the MIC (Pseudomonas aeruginosa) was 25 µg/mL (≈ 48.2 µM), the inhibition at 48 h, 50 ug/mL [1] was 19.6% and the MIC (Escherichia coli) was 25 µg/mL (≈ 48.2 µM). For the same compound, the MIC (Staphylococcus aureus) was 25 µg/mL (≈ 48.2 µM).

For `COc1ccc(-c2nc3sc(C)nn3c2/C=N/Nc2nc(-c3ccc(Cl)cc3)cs2)cc1`, the MIC (Pseudomonas aeruginosa) was 12.5 µg/mL (≈ 26 µM), the inhibition at 48 h, 50 ug/mL [1] was 12.7% and the MIC (Escherichia coli) was 6.25 µg/mL (≈ 13 µM). For the same compound, the MIC (Staphylococcus aureus) was 12.5 µg/mL (≈ 26 µM).
